Tests used:
[1] = molecular target: T1, C. jejuni response regulator CosR (Campylobacter jejuni, UniProt Q0PBF4); experiment: Isothermal titration calorimetry (ITC) with CosR; format: binding
Procedure: Molecular interactions of the selected ligands with proteins HsrA or CosR were studied by isothermal titration calorimetry (ITC), as previously described. Titrations were assessed in a high-sensitivity MicroCal Auto-iTC200 calorimeter (Malvern Panalytical, Malvern, UK). Experiments were carried out at 25 °C in freshly prepared buffer containing 50 mM Tris-HCl [pH 8], 150 mM NaCl, 10% glycerol, and 1% DMSO. A 20 µM solution of protein was located in the calorimetric cell. Then, a sequence of 19 injections of 2 µL volume each with a 200 µM solution of the corresponding ligand was programmed with a time spacing of 150 s, a stirring speed of 750 rpm, and a reference power of 10 µcal/s in the sample cell. Thermodynamic properties such as binding stoichiometry, dissociation constants, and binding enthalpies were calculated by nonlinear least-squares regression data analysis using Origin 7.0 software.

[2] = molecular target: T1, C. jejuni response regulator CosR; experiment: EMSA: inhibition of in vitro DNA binding activity of CosR to promoter PsodB; format: biochemical; conditions: 700 nM CosR, ligand 0.1-2 mM
Procedure: The DNA binding activities of recombinant HsrA and CosR were assessed in vitro by electrophoretic mobility shift assays (EMSAs). A 300-bp promoter region of the H. pylori 26695 operon porGDAB was used as the target sequence of HsrA in all EMSA experiments. Likewise, a 420-bp sequence of the C. jejuni sodB promoter (ATCC 33560) was used as the target DNA of CosR [90]. The oligonucleotides used for the synthesis of these promoter regions are described in Supplementary Table S4. Response regulators HsrA (6 μM) or CosR (700 nM) were mixed with 120 ng of their target promoters in a reaction buffer of 10 mM bis-Tris (pH 7.5), 40 mM KCl, 100 mg/L BSA, 1 mM DTT, and 5% glycerol. For the in vitro inhibition analyses, mixtures of target DNA and response regulator were exposed to 2, 1, 0.5, and 0.1 mM of each compound of interest, incubated at room temperature for 20 min, and then separated on a 6% non-denaturing electrophoresis. DMSO instead of inhibitors was included as a vehicle control, while an internal sequence of the Anabaena sp. pkn22 gene was used as the non-specific competitor in all assays. For DNA-protein binding visualization, gels were stained with the SYBR Safe DNA gel stain (Invitrogen) and analyzed with a Gel Doc 2000 Image Analyzer (Bio-Rad).

T1 sequence (Q0PBF4 entry or part of it): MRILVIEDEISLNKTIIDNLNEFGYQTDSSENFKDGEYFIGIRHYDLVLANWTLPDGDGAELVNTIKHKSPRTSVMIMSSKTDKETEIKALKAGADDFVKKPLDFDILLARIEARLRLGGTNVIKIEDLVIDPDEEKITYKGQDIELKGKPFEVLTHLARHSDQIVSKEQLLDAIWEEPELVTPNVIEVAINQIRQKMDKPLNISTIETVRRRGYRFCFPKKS

In the case of `NC(=NOC(=O)Nc1ccc(Cl)cc1)c1csc([N+](=O)[O-])c1` [Ligand V, N′-{[(4-chloroanilino)carbonyl]}oxy-5-nitrothiophene-3-carboximidamide], the ΔG ([1]; absolute error 0.1) is reported as -6.2 kcal/mol, the ΔH ([1]; absolute error 0.4) is reported as -0.9 kcal/mol and the Kd ([1]; relative error 15%) is reported as 26 µM. For the same compound, the “Inhibition of in vitro DNA binding activity of CosR (EMSA)” value [2] was “noticeable inhibition”.

— article PMC11432330, “Novel Drug-like HsrA Inhibitors Exhibit Potent Narrow-Spectrum Antimicrobial Activities against Helicobacter pylori” (International Journal of Molecular Sciences, 2024)
